Values joined by “and” are separate entries in the source; they are usually repeats but may differ in a detail not shown here. Identical values can stand only once. Counter-ions that a name gives are not always drawn. Like-named read-outs stand apart in the source and are kept apart here.

Series [1] has as its system mouse bone marrow stem cells. Nature of the series: Inhibition of the CSF-induced proliferation of mouse bone marrow stem cells (colony formation). Particulars: recombinant murine GM-CSF, 7 days.
Experimental: Bone marrow cells were washed out of mice femurs. 10^5 cells were incubated at 37° C. and 7% CO2 in McCoy 5A medium (0.3% agar) together with recombinant murine GM-CSF (Genzyme; stem cell colony formation) and the substances (10^−4 to 100 μg/ml). 7 days later, the colonies (<50 cells) and clusters (17-50 cells) were counted.
The test system of the next series is B16F10. Nature of the series: Growth inhibition test (MTT) for cytotoxic properties. The class given is cell-based, mouse. On the procedure: (§1) The human large intestine cell lines SW 480 and HT 29 (ATCC No. CCL 228 and HBT 38) and the mouse melanoma cell line B16F10 were grown in Roux dishes in RPMI 1640 medium with addition of 10% FCS. They were then trypsinized and taken up in RPMI plus 10% FCS to a cell count of 50,000 cells/ml. 100 μl of cell suspension/well were added to a 96 microwell plate and incubated for 1 day at 37° C. in a CO2 incubator. A further 100 μl of RPMI Medium and 1 μl of DMSO containing the test substances were then added. The growth was checked after day 3 and day 6. To this end, 40 μl of MTT solution (3-(4,5-dimethylthiazol-2-yl)-2,5-diphenyltetrazoline bromide) having a starting concentration of 5 mg/ml of H2O were added to each microwell. Incubation was carried out for 5 hours in a CO2 incubator at 37° C. The medium was then aspirated and 100 μl of i-propanol/well were added. After shaking for 30 min with 100 μl of H2O, the extinction was measured at 540 nm using a Titertek Multiscan MCC/340 (Flow).
(§2) The cytotoxic action is indicated in Table 1 as the IC50 value in each case for the SW 480 and HT 29 and B16F10 cell lines: […]

The test system of the next series is HT 29. The description is as above. The class given is cell-based, human. The procedure:
as §1, §2

The next series deals with SW 480. The series is described as above. The class given is cell-based, human. On the procedure: as §1, §2
Series [2] deals with large-cell lung carcinoma LXFL 529. Nature of the series: In vivo inhibition of tumour growth in the nude mouse model. Particulars: for Survival time: individual mice. The procedure: (§3) For all in vivo experiments for investigation of the inhibition of tumour growth athymic nude mice (NMRI nu/nu strain) were used. The selected large-cell lung carcinoma LXFL 529 was grown by serial passage in nude mice. The human origin of the tumour was confirmed by isoenzymatic and immunohistochemical methods.
(§4) The tumour was implanted subcutaneously into both flanks of 6 to 8 week old nu/nu nude mice. The treatment was started, depending on the doubling time, as soon as the tumours had reached a diameter of 5-7 mm. The mice were assigned to the treatment group and the control group (5 mice per group with 8-10 assessable tumours) by randomization. The individual tumours of the control group all grew progessively.
(§5) The size of the tumours was measured in two dimensions by means of a slide gauge. The tumour volume, which correlated well with the cell count, was then used for all evaluations. The volume was calculated according to the formula “length×breadth×breadth/2” ([a×b^2]/2, a and b represent two diameters at right angles).
(§6) The values of the relative tumour volume (RTV) were calculated for each individual tumour by dividing the tumour size on day X with the tumour size on day 0 (at the time of randomization). The mean values of the RTV were then used for the further evaluation.
(§7) The inhibition of the increase of the tumour volume (tumour volume of the test group/control group, T/C, in per cent) was the final measured value.
(§8) The administration of the compounds was carried out intraperitoneally (i.p.) on day 1, 2 and 3 after randomization.

Assay in series [3]: as above
Particulars: NMRI nu/nu, mouse, in vivo, ip; nude mice, i.p. on day 1, 2 and 3; read-out: Maximum tolerable dose (MTD). On the procedure:
as §3, §4, §5, §6, §7, §8

Setting [4] is: B16-F10, mouse melanoma cell line B16F10, MTT, read-out: IC50 B16F10.
The mark [5] stands for this setting: human large intestine cell line HT 29, MTT, read-out: IC50 HT 29.
The mark [6] stands for this setting: SW480, human large intestine cell line SW 480, MTT, read-out: IC50 SW 480.
Setting [7] is: 6.25 mg/kg/day i.p. on day 1, 2 and 3.
Setting [8] is: 12.5 mg/kg/day (MTD) i.p. on day 1, 2 and 3.

Regarding `CCc1c2c(nc3ccccc13)-c1cc3c(c(=O)n1C2)COC(=O)[C@]3(O)CC` [7-ethyl-camptothecin], the “IC50, inhibition of the CSF-induced proliferation of mouse bone marrow stem cells” value in series [1] worked out at 0.002 ng/mL.

Regarding `CC[C@@]1(O)C(=O)OCc2c1cc1n(c2=O)Cc2cc3c(N)cccc3nc2-1` [9-amino-camptothecin], the “IC50, inhibition of the CSF-induced proliferation of mouse bone marrow stem cells” value in series [1] was found to be 1 ng/mL.

For `CCc1c2c(nc3ccccc13)-c1cc3c(c(=O)n1C2)COC(=O)[C@@]3(CC)OC(=O)[C@H](C)NC(=O)[C@H](CCCCNC(=S)Nc1ccc(OC2O[C@@H](C)[C@@H](O)[C@@H](OC)[C@@H]2O)cc1)NC(=S)Nc1ccc(OC2O[C@@H](C)[C@@H](O)[C@@H](OC)[C@@H]2O)cc1` (stereo partly drawn) [Example 1.1, 20(S)-7-Ethyl-20-O-{N^α, N^ε-bis-[O-(3-O-methyl-β-L-fucopyranosyl)-4-hydroxy-phenylamino-thiocarbony]-lysyl-alanyl}-camptothecin], the values for the IC50 in the series with B16F10 (setting [4]), in the series on HT 29 (setting [5]) and in the series on SW 480 (setting [6]) were 30 nM, 10 nM and 15 nM, respectively. For the same compound, the “Relative body weight on day 7” value is given as 98 % of day 0 in series [2] (setting [7]) and 95 % of day 0 in series [2] (setting [8]). Further, the “Relative tumour volume on day 14” value is listed as 32 % of day 0 in series [2] (setting [7]) and 0.1 % of day 0 in series [2] (setting [8]). Moreover, the Survival time in series [2] (setting [7]) was >21 days (4×) and 13 days; in series [2] (setting [8]), over 21 days. Besides, the MTD at 3 days in series [3] came to 12.5 mg/kg/day.

Turning to `CCc1c2c(nc3ccccc13)-c1cc3c(c(=O)n1C2)COC(=O)C3(CC)OC(=O)[C@@H](NC(=O)[C@H](CCCCN)NC(=S)Nc1ccc(OC2OC(C)C(O)C(OC)C2O)cc1)C(C)C` (stereo partly drawn) [Example 1.5, 7-Ethyl-20-O-{N^α-[O-(3-O-methyl-β-L-fucopyranosyl)-4-hydroxyl-phenyl-amino-thiocarbonyl]-lysyl-valyl)-camptothecin, hydrochloride], the results for the IC50 in the series with B16F10 (setting [4]), in the series on HT 29 (setting [5]) and in the series with SW 480 (setting [6]) were 300 nM, 60 nM and 100 nM, respectively.

For `CCC1(OC(=O)[C@H](C)NC(=O)[C@H](CCCCNC(=S)Nc2ccc(OC3O[C@@H](C)[C@@H](O)[C@@H](OC)[C@@H]3O)cc2)NC(=S)Nc2ccc(OC3O[C@@H](C)[C@@H](O)[C@@H](OC)[C@@H]3O)cc2)C(=O)OCc2c1cc1n(c2=O)Cc2cc3cc4c(cc3nc2-1)OCO4` (stereo partly drawn) [Example 2.1, 20(R,S)-10,11-Methylenedioxy-20-O-{N^α,N^ε-bis-[O-(3-O-methyl-β-L-fucopyranosyl)-4-hydroxy-phenylamino-thiocarbonyl]-lysyl-alanyl}-camptothecin], the half-inhibitory concentration (IC50) came to 15 nM in the series on B16F10 (setting [4]), 5 nM in the series with HT 29 (setting [5]) and 7 nM in the series with SW 480 (setting [6]).

For `CCC1(OC(=O)C(C)NC(=O)[C@H](CCCCN)NC(=S)Nc2ccc(OC3OC(C)C(O)C(OCC(=O)O)C3O)cc2)C(=O)OCc2c1cc1n(c2=O)Cc2cc3cc4c(cc3nc2-1)OCO4` (stereo partly drawn) [Example 2.3, 20(S)-10,11-Methylenedioxy-20-O-{N^α-[O-(3-O-carboxymethyl-β-L-fucopyranosyl)-4-hydroxy-phenylamino-thiocarbonyl]-lysyl-alanyl}-camptothecin, hydrochloride], the 50% inhibitory concentration (IC50) in the series with B16F10 (setting [4]) amounted to 9 nM; in the series on HT 29 (setting [5]) it was 3 nM; in the series on SW 480 (setting [6]), 6 nM.

Consider `CC[C@@]1(OC(=O)[C@H](CC(C)C)NC(=O)[C@H](CCCCN)NC(=S)Nc2ccc(O[C@H]3O[C@@H](C)[C@@H](O)[C@@H](OC)[C@@H]3O)cc2)C(=O)OCc2c1cc1n(c2=O)Cc2cc3cc4c(cc3nc2-1)OCO4` [Example 2.4, 20(S)-10,11-Methylenedioxy-20-O-{N^α-[O-(3-O-methyl-β-L-fucopyranosyl)-4-hydroxy-phenylamino-thiocarbonyl]-lysyl-leucyl}-camptothecin, hydrochloride], for which the IC50 in the series with B16F10 (setting [4]) was 10 nM; with HT 29 (setting [5]), 3 nM; with SW 480 (setting [6]), 5 nM.

With `CC[C@@]1(OC(=O)[C@H](C)NC(=O)[C@H](CCCCNC(=S)Nc2ccc(OC3O[C@@H](C)[C@@H](O)[C@@H](OC)[C@@H]3O)cc2)NC(=S)Nc2ccc(OC3O[C@@H](C)[C@@H](O)[C@@H](OC)[C@@H]3O)cc2)C(=O)OCc2c1cc1n(c2=O)Cc2cc3c(N)cccc3nc2-1` (stereo partly drawn) [Example 3.1, 20(S)-9-Amino-20-O-{N^α,N^ε-bis-[O-(3-O-methyl-β-L-fucopyranosyl)4-hydroxy-phenylamino-thiocarbonyl]-lysyl-alanyl}-camptothecin], the half-inhibitory concentration (IC50) was found to be 150 nM with B16F10 (setting [4]), 8 nM with HT 29 (setting [5]) and 10 nM with SW 480 (setting [6]).

In the case of `CC[C@@]1(OC(=O)[C@H](C)NC(=O)[C@H](CCCCNC(=S)Nc2ccc(OC3O[C@@H](C)[C@@H](O)[C@@H](OC)[C@@H]3O)cc2)NC(=S)Nc2ccc(OC3O[C@@H](C)[C@@H](O)[C@@H](OC)[C@@H]3O)cc2)C(=O)OCc2c1cc1n(c2=O)Cc2c-1nc1ccccc1c2COC(=O)[C@H](C)NC(=O)[C@H](CCCCNC(=S)Nc1ccc(OC2O[C@@H](C)[C@@H](O)[C@@H](OC)[C@@H]2O)cc1)NC(=S)Nc1ccc(OC2O[C@@H](C)[C@@H](O)[C@@H](OC)[C@@H]2O)cc1` (stereo partly drawn) [Example 4.1, 20(S)-7-{N^α,N^ε-bis-[O-(3-O-Methyl-β-L-fucopyranosyl)-4-hydroxy-phenylamino-thiocarbonylmino-thiocarbonyl]-lysyl-alanyloxymethyl}-20-O-{N^α,N^ε-bis-[O-(3-O-methyl-β-L-fucopyranosyl)-4-hydroxy-phenylamino-thiocarbonyl]-lysyl-alanyl}-camptothecin], the IC50 with B16F10 (Mus musculus, B16-F10, read-out: IC50 B16F10) was found to be 300 nM; in the series with HT 29 (Homo sapiens, HT-29, read-out: IC50 HT 29), 40 nM; in the series with SW 480 (Homo sapiens, SW480, read-out: IC50 SW 480), 40 nM.

For the compound `CC[C@@]1(OC(=O)[C@H](CC(C)C)NC(=O)[C@H](CCCCN)NC(=S)Nc2ccc(O[C@H]3O[C@@H](C)[C@@H](O)[C@@H](OC)[C@@H]3O)cc2)C(=O)OCc2c1cc1n(c2=O)Cc2c-1nc1cc3c(cc1c2CN1CCN(C)CC1)OCCO3` [Example 5.1, 20(S)-7-[4-(Methylpiperazino)methy]-10,11-(ethylenedioxy)-20-O-{N^α-[O-(3-O-methyl-β-L-fucopyranosyl)4-hydroxy-phenylamino-thiocarbonyl-lysyl-leucyl}-camptothecin, hydrochloride], the IC50 was found to be 200 nM in the series with B16F10 (setting [4]), 40 nM with HT 29 (setting [5]) and 70 nM in the series on SW 480 (setting [6]).

Take `CCc1c2c(nc3ccc(O)cc13)-c1cc3c(c(=O)n1C2)COC(=O)C3(CC)OC(=O)[C@@H](NC(=O)[C@H](CCCCN)NC(=S)Nc1ccc(OC2OC(C)C(O)C(OC)C2O)cc1)C(C)C` (stereo partly drawn) [Example 6.1, 7-Ethyl-10-hydroxy-20-O-{N^α-[O-methyl-β-L-fucopyranosyl)-4-hydroxy-phenylamino-thiocarbonyl]-lysyl-valyl}-camptothecin, hydrochloride]: the IC50 in the series with B16F10 (setting [4]) stood at 3000 nM; in the series on HT 29 (setting [5]), 200 nM; with SW 480 (setting [6]) it was 150 nM.

As usually defined, the IC50 is the midpoint of a concentration-inhibition curve. Usually MTD stands for the highest dose tested that stayed within the study's limit of toxicity.

These data come from patent US6492335B1, “Glycoconjugates from modified camptothecin derivatives (20-O-linkage)” (Bayer Aktiengesellschaft, priority 1996, dated 2002).
